Experimental data published in PubChem BioAssay (NCI).
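48-hour exposure; five concentrations; linearly interpolated endpoints. TGI is the concentration that stops growth completely.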

How the values were obtained:
Experiment in all cases: inhibition of tumour cell growth, NCI panel, 48 h
786-0 renal = system: 786-0 renal
SNB-75 CNS = system: SNB-75 CNS
NCI-H23 lung = system: NCI-H23 lung
MDA-N = system: MDA-N
NCI-H226 lung = system: NCI-H226 lung
BT-549 breast = system: BT-549 breast
MCF7 breast = system: MCF7 breast
OVCAR-4 ovarian = system: OVCAR-4 ovarian
NCI/ADR-RES ovarian = system: NCI/ADR-RES ovarian
SW-620 colon = system: SW-620 colon
NCI-H460 lung = system: NCI-H460 lung
HOP-62 NSCLC = system: HOP-62 NSCLC

SMILES	TGI (786-0 renal) [µM]	TGI (SNB-75 CNS) [µM]	TGI (NCI-H23 lung) [µM]	TGI (MDA-N) [µM]	TGI (NCI-H226 lung) [µM]	TGI (BT-549 breast) [µM]	TGI (MCF7 breast) [µM]	TGI (OVCAR-4 ovarian) [µM]	TGI (NCI/ADR-RES ovarian) [µM]	TGI (SW-620 colon) [µM]	TGI (NCI-H460 lung) [µM]	TGI (HOP-62 NSCLC) [µM]
O=C(c1ccccc1)C(Nc1ccc2ccccc2c1)c1ccccc1 (stereo unspecified)	> 100	> 71.9	> 100	> 100	> 100	> 100	> 100	> 100	> 100	> 100	> 100	> 100
Cc1ccc(SCC(CF)OC(C)n2cnc3c(Cl)nc(N)nc32)cc1 (stereo unspecified)	> 100	> 100	> 100	> 100	> 100	> 100	> 100	52.6	> 100	> 100	> 100	> 100
O=C(CCc1ccc(O)c(O)c1)NCCc1cc(O)c(O)c(O)c1	32.6	> 100	31.3	30.6	> 100	31.1	21.7	34.5	40.9	35.5	40.8	> 100
Cc1cccc2c1c(=O)c1c(O)cc3c(c1n2C)C=CC(C)(C)O3	> 100	> 100	> 100	> 100	> 100	> 100	> 100	> 100	> 100	> 100	> 100	> 100
O=C1CCCCC1C(O)(C(F)(F)F)C(F)(F)Cl (stereo unspecified)	> 10	> 10	> 10	> 10	> 10	> 10	> 10	> 10	> 10	> 10	> 10	> 10
CCCCCCCC(CC(=O)NC(CO)C(=O)NC(CO)CC(C)C)OC(=O)CC(CCCCCCC)OC(=O)CC(CCCCCCC)OC1OC(C)C(O)C(OC2OC(C)C(O)C(O)C2O)C1O (stereo unspecified)	35	24.9	30	20.5	38.7	28.8	> 52.3	28	33.7	33.4	19.1	35
CCN(CC)C(=S)N/N=C/c1cc(OC)ccc1O	> 100	> 100	> 100	> 100	25.5	> 100	9.84	> 100	40.4	> 100	14.3	> 100
CCOC(=O)C1=CNC(C(=O)OCC)C1c1cccn1-c1ccccc1 (stereo unspecified)	> 100	65.4	> 100	57.4	54.2	> 100	> 100	> 100	91.4	> 100	> 100	> 100
CCOC(=O)Nc1n[nH]nc1Cl	> 100	> 100	> 100	> 100	> 100	> 100	> 100	> 100	> 100	> 100	> 100	> 100
Cc1cnc2c(c1)C(=O)N(c1ccc([N+](=O)[O-])cc1)S2(=O)=O	> 100	> 100	> 100	> 100	78.5	> 100	> 100	> 100	> 100	> 100	> 100	> 100
CCCCCCCc1cscc1-c1cscc1Br	> 100	87	> 100	> 100	> 100	> 100	> 100	> 100	> 100	> 100	> 100	> 100
CC(=O)N=c1ccc2nc(N)nn(O)c-2c1	> 100	> 100	> 100	> 100	> 100	> 100	> 100	> 100	> 100	> 100	> 100	> 100
NC(Cc1ccccc1)c1nn[nH]n1 (stereo unspecified)	> 100	> 100	> 100	> 100	> 100	> 100	> 100	> 100	> 100	> 100	> 100	> 100
Cc1c2ccccc2c(C2C3C(=O)N(c4cccc5ccccc45)C(=O)C3ON2Cc2ccc(CC(N)=O)cc2)c2ccccc12 (stereo unspecified)	> 50	43.5	> 50	35.6	46.5	> 50	> 50	> 50	> 50	> 50	48.6	> 50
C=C(CCC/C(C)=C/C=C/[C@H](C)CCCc1ccoc1)C[C@@H]1OC(=O)[C@H](C)[C@@H]1O	27.4	17.3	18.2	20.5	16.6	16.9	33.9	13.1	22.5	26.7	45	18.8
Cc1c(-c2nc(N)c(C#N)c(N)c2C#N)c(=O)oc2ccccc12	> 100	> 100	> 100	> 100	> 100	> 100	> 100	> 100	> 100	> 100	> 100	> 100
C(=N\NC1=NCCN1)/c1cccc2cc3ccncc3nc12	4.51	5.04	25.5	11	21.2	29.4	14.5	12.3	25.2	6.91	20.5	19.7
CCOC(=O)c1cn(CC)c2ccc3ccsc3c2c1=O	> 100	> 100	> 100	> 100	> 100	> 100	> 100	> 100	> 100	> 100	> 100	> 100
CCCn1c(=O)c2nn3c(=O)n(CCC)c(=O)c3nn2c1=O	> 100	> 100	> 100	> 100	> 100	> 100	> 100	> 100	> 100	> 100	> 100	> 100
COc1ccc2c(c1)-c1nc(=O)n(CCCN(C)C)c3ccc([N+](=O)[O-])c(c13)N2	1.94	8.51	4.5	19.2	27.5	16.8	18.2	7.34	10.4	> 44.3	15.1	2.39
O=C(O)c1cccc(OCCOc2cccc(C(=O)O)c2[N+](=O)[O-])c1[N+](=O)[O-]	> 100	> 100	> 100	> 100	> 100	> 100	> 100	> 100	> 100	> 100	> 100	> 100
COc1ccc(-n2c(Cn3nnc(-c4cccnc4)n3)nn(C3OC(COC(=O)c4ccccc4)C(OC(=O)c4ccccc4)C3OC(=O)c3ccccc3)c2=S)cc1 (stereo unspecified)	> 100	> 100	> 100	> 100	36.1	> 100	> 100	> 100	> 100	> 100	> 100	> 100
Cc1cc(C)c(S(=O)(=O)N(CCCN)OCCON(CCCN)S(=O)(=O)c2c(C)cc(C)cc2C)c(C)c1	13.1	12.6	7.11	8.22	18.1	66.2	> 100	10.3	46.6	> 100	17	11.5
